Values quoted from earlier work as cited in article PMC5587309, “Involvement of arginine 878 together with Ca^2+ in mouse aminopeptidase A substrate specificity for N-terminal acidic amino-acid residues” (PLoS ONE, 2017).

Test system: APN
Set-up: method as in PMID 7915326
Details: cited from earlier work

N[C@H](CS)CCS(=O)(=O)O [EC33, (3S)‐3‐amino‐4‐sulfanylbutane‐1‐sulfonic acid]
fold less active on APN than on APA: 100 fold
